# Experimental data reported in patent publication US8754095B2, “Substituted N-heterocycloalkyl bipyrrolidinylphenyl amide derivatives, preparation and therapeutic use thereof” (Sanofi, priority 2010, dated 2014).
# Where a name gives a salt, the structure may show the parent alone.
# What was measured:
# [1] = biological target: T1, rhesus (Macacca Mulatta) H3 receptor (Macaca mulatta, UniProt Q865E1); assay: Rhesus H3 [3H]-Methylhistamine radioligand binding assay; parameters: species or system rhesus monkey (Macacca Mulatta); details: displacement of [3H]-Methylhistamine (2 nM), rhesus H3 membranes, Cheng-Prusoff
# T1 construct: pcDNA5/FRT/TO (Invitrogen) containing the rhesus monkey (Macacca Mulatta) 445 amino acid H3 receptor
# T1 sequence (Q865E1 1-445): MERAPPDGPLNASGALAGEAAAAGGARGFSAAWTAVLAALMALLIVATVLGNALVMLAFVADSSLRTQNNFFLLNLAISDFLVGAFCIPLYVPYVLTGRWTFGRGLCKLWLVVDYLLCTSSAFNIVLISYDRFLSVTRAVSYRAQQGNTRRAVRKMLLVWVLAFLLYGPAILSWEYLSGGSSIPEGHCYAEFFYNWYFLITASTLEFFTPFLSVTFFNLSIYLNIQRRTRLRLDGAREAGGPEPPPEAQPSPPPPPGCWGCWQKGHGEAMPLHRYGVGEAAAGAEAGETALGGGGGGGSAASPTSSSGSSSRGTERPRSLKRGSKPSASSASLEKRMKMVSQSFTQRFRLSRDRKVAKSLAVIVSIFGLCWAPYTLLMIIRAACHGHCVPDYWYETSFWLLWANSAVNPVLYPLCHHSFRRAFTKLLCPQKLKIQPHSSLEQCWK
# Experimental: Rhesus H3 membranes were prepared from the Flp-In T-REx 293 Cell Line (Invitrogen) stably transfected with pcDNA5/FRT/TO (Invitrogen) containing the rhesus monkey (Macacca Mulatta) 445 amino acid H3 receptor. (Genbank #AY231164). Stably transfected cultures were amplified in tissue culture flasks by standard tissue culture methods and induced to express rhesus H3 by exposure to 500 ng/ml tetracycline (Cellgro) for 24 hours. After induction, cells were dissociated from flasks utilizing Cell Stripper (Cellgro). Cells were centrifuged (1 K×g, 5 min) and pellet frozen in an ethanol-dry ice bath to disrupt cell membranes. Frozen cell pellet was re-suspended in 5 mM HEPES (pH 7.4, Invitrogen) at 10 ml/1000 cm2 of harvested cells. The cell suspension was drawn through an 18 gauge needle (2-3×) followed by a 23 gauge needle (2-3×) to further disrupt cell membranes. The cell suspension was centrifuged (40K×g, 30 min). Cell membrane pellet was re-suspended in 5 mM HEPES (pH 7.4, Invitrogen) at a final protein concentration of 10 mg/ml. Rhesus H3 membranes were stored under liquid nitrogen prior to use in [3]-Methylhistamine and GTPγS radioligand binding assays.
# (§1) Rhesus H3 radioligand binding assay was performed using rhesus H3 receptor membranes (prepared as described above), [3H]-Methylhistamine (Perkin Elmer) and WGA SPA beads (wheat germ agglutinin scintillation proximity assay) beads (Amersham). The assay was performed in 96-well Opti-Plates (Packard). Each reaction contained 50 μl rhesus H3 membranes (20-30 μg total protein), 50 μl WGA SPA beads (0.1 μg) and 50 μl of 83 Ci/mmol [^3H]-Methylhistamine (final concentration 2 nM) and 50 μl of tested compound. The compounds of this invention and/or vehicle were diluted with binding buffer from 10 mM DMSO stocks. Assay plates were sealed with TopSeal (Perkin Elmer) and mixed on shaker (25° C., 1 hour). Assay plates were read on TopCount scintillation counter (Packard). Results were analyzed by Hill transformation and Ki values were determined by Cheng-Prusoff equation. Similar procedures were employed to determine the binding data for rat and mouse.
# Rat H3 = Rat H3 (Rattus norvegicus, UniProt Q9QYN8); assay: Rat H3 radioligand binding assay; details: similar procedure as rhesus binding
# Chain of Rat H3 (Q9QYN8 whole entry): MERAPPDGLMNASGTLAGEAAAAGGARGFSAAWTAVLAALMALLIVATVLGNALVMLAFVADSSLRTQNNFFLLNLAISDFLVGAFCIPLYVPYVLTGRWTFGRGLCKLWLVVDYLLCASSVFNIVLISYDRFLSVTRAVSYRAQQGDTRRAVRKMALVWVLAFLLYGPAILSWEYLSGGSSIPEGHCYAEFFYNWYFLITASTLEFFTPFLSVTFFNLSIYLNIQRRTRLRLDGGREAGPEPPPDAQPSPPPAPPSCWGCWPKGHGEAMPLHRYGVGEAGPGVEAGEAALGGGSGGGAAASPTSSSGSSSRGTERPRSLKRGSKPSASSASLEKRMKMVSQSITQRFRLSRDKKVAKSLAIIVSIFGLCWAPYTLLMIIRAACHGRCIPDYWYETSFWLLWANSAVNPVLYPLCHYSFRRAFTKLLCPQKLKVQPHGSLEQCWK
# Experimental: as §1
# Mouse H3 = Mouse H3 (Mus musculus, UniProt P58406); assay: Mouse H3 radioligand binding assay; details: similar procedure as rhesus binding
# Chain of Mouse H3 (P58406 whole entry): as the sequence (Q9QYN8 whole entry) above, with T15A, A286T, A290G, R387H, I389V counted along it
# Experimental: as §1
# Rats = assay: Forced-Swimming Test in Rats; format: in vivo; details: rat, p.o. twice, 5-min test
# Experimental: This example further illustrates the study of efficacy of the compounds of this invention as antidepressive agents in animal models.
# The procedure was a modification of that described by Porsolt et al. (1977) Depression: a new animal model sensitive to antidepressant treatments. Nature 266:730-2. Rats were placed in individual glass cylinder (40 cm height, 18 cm diameter) containing water (22-25° C.) to a height of 15 cm. Two swimming sessions were conducted (a 15-min training session followed 24 h later by a 5-min test). After each swimming session, rats were placed under a heating lamp to avoid hypothermia. The duration of immobility was measured during the 5-min test.
# Example 1 of this invention was administered p.o. twice (15 min pre-test followed by first injection 24 h prior to 5 min test) at a dosage of 10 mg/kg.
# Example 2 of this invention was administered p.o. twice (15 min pre-test followed by first injection 24 h prior to 5 min test) at a dosage levels of 0.1, 1, and 10 mg/kg.
Ki [1],Ki (Rat H3),melting point,Ki (Mouse H3),Structure (SMILES),activity in forced-swimming test (duration of immobility) (Rats; 10 mg/kg),activity in forced-swimming test (duration of immobility) (Rats; 0.1 mg/kg),activity in forced-swimming test (duration of immobility) (Rats; 1 mg/kg)
0.804 nM,1.12 nM,,,"C[C@H]1CCCN1[C@H]1CCN(c2ccc(CC(=O)NC3CCNCC3)cc2)C1 [Example 7, 2-[4-((2S,3′S)-2-Methyl-[1,3′]bipyrrolidinyl-1′-yl)-phenyl]-N-piperidin-4-yl-acetamide hydrochloride]",,,
2.75 nM,19.4 nM,,,C[C@H]1CCCN1[C@H]1CCN(c2ccc(CC(=O)NC3CCN(C(=O)OC(C)(C)C)CC3)cc2)C1 [Example 6],,,
1.52 nM,19.7 nM,147 °C,12.1 nM,"Cc1cc(N2CC[C@H](N3CCC[C@@H]3C)C2)ccc1C(=O)NC1CCOCC1 [Example 4, 2-Methyl-4-((2S,3′S)-2-methyl-[1,3′]bipyrrolidinyl-1′-yl)-N-(tetrahydro-pyran-4-yl)-benzamide]",,,
2.5 nM,8.32 nM,,10.8 nM,"C[C@H]1CCCN1[C@H]1CCN(c2ccc(CC(=O)NC3CCOCC3)cc2)C1 [Example 1, 2-[4-((2S,3′S)-2-Methyl-[1,3′]bipyrrolidinyl-1′-yl)-phenyl]-N-(tetrahydro-pyran-4-yl)-acetamide]",active,,
1.59 nM,8.25 nM,,,"CCOC(=O)N1CCC(NC(=O)Cc2ccc(N3CC[C@H](N4CCC[C@@H]4C)C3)cc2)CC1 [Example 8, 4-{2-[4-((2S,3′S)-2-Methyl-[1,3′]bipyrrolidinyl-1′-yl)-phenyl]-acetylamino}-piperidine-1-carboxylic acid ethyl ester]",,,
2.99 nM,9.79 nM,,19.6 nM,"C[C@H]1CCCN1[C@H]1CCN(c2ccc3cc(C(=O)NC4CCOCC4)ccc3c2)C1 [Example 2, 6-((2S,3′S)-2-Methyl-[1,3′]bipyrrolidinyl-1′-yl)-naphthalene-2-carboxylic acid (tetrahydro-pyran-4-yl)amide]",active,active,active
1.24 nM,19.1 nM,,40.3 nM,"C[C@H]1CCCN1[C@H]1CCN(c2ccc(C(=O)NCC3CCOCC3)cc2)C1 [Example 5, 4-((2S,3′S)-2-Methyl-[1,3′]bipyrrolidinyl-1′-yl)-N-(tetrahydro-pyran-4-ylmethyl)-benzamide]",,,
1.98 nM,15 nM,180 °C,10.1 nM,"C[C@H]1CCCN1[C@H]1CCN(c2ccc(C(=O)NC3CCOCC3)cc2)C1 [Example 3, 4-((2S,3′S)-2-Methyl-[1,3′]bipyrrolidinyl-1′-yl)-N-(tetrahydro-pyran-4-yl)-benzamide]",,,
0.466 nM,0.929 nM,,4.4 nM,"CNC(=O)C1CCN(Cc2ccc(N3CC[C@H](N4CCC[C@@H]4C)C3)cc2)CC1 [Example 10, 1-[4-((2S,3′S)-2-Methyl-[1,3′]bipyrrolidinyl-1′-yl)-benzyl]-piperidine-4-carboxylic acid methylamide; hydrochloride]",,,
0.69 nM,1.26 nM,,,"C[C@H]1CCCN1[C@H]1CCN(c2ccc(CC(=O)NC3CCN(CC4CCCC4)CC3)cc2)C1 [Example 9, N-(1-Cyclopentylmethyl-piperidin-4-yl)-2-[4-((2S,3′S)-2-methyl-[1,3′]bipyrrolidinyl-1′-yl)-phenyl]-acetamide]",,,
